# Reference: paper PMC6315541, “Nile Tilapia Derived Antimicrobial Peptide TP4 Exerts Antineoplastic Activity Through Microtubule Disruption” (Marine Drugs, 2018)
# What was measured:
# [1] = system: microtubule network (α-Tubulin) in A549 cells; assay: Immunocytochemistry of microtubule network and peptide uptake in A549 cells; assay type: cell-based, human; conditions: for effect on microtubule network (α-Tubulin ICC): FITC-labeled mutants
# Procedure: To examine whether TP4 may affect microtubule dynamics, A549 cells were treated with TP4, and cytoskeletal elements were analyzed by immunocytochemistry (ICC). […] We then asked whether TP4 treatment may influence tubulin protein levels by performing Western blots on lysates from A549 cells that had been treated with vehicle or TP4. […] We next conducted a microtubule regrowth assay to further address whether TP4 may disrupt microtubule polymerization. TP4 was applied to A549 cells that had been treated with or without Nocodazole (20 μM) treatment for 6 h, which completely depolymerizes the microtubule network. The repolymerization of microtubules was then initialized by the addition of fresh recovery medium, and regrowth was analyzed by ICC.
# While the reduced toxicity may result from impaired binding to tubulin, it is also possible that such effects may be caused by conformational changes in the TP4 mutants, see Supplementary Figure S1C,D, which prevent intracellular penetration. To test this possibility, ICC was conducted to evaluate the cellular localization and the effects on microtubules. […] For both Gly and Ala substitution mutants, FITC-labeled TP4 mutants were able to be taken up intracellularly, see Figure 6B, panels MT-1 to MT-6. However, the microtubule network was only affected in MT-1- and MT-4-treated cells and not the other mutant-treated groups, as shown in Figure 6B.
# (§1) Figure 6 Loss of cancer-killing ability in TP4 mutants. (A) Cell viability in A549 cells was determined by the adenosine triphosphate (ATP) assay following treatment with varying doses of TP4 and TP4 mutants for 24 h. Multiple wells were analyzed for each assay. Results represent the mean ± SD. Statistical comparisons between groups were performed using two-way ANOVA: a, not significant; b, p < 0.05; d, p < 0.001. Statistical analyses are shown in Supplementary Table S1. (B) Cells were stained for TP4 (WT panel), FITC (MT-1 to MT-6 panels), α-Tubulin, and F-actin. Hoechst33342 was used for nuclei staining. Boxed regions are magnified in the furthest right panels. […] Bar: 20 μm.
# Cells were stained with TP4 (1:1000), FITC (1:500, ThermoFisher Scientific, clone 1F8-1E4), α-Tubulin (1:500), and appropriate Alexa Flour conjugated secondary antibody (1:500; ThermoFisher Scientific, Eugene, OR, USA). Hochest33342 was used for nuclear staining, and Alexa Fluor 647-conjugated phalloidin (1:200, Thermo Fisher Scientific, Eugene, OR, USA) was used to stain F-actin. For the confocal microscopic analysis, samples were mounted with fluorescent mounting medium (ProLong Gold Antifade Reagent, ThermoFisher Scientific, Eugene, OR, USA) and images were obtained with a FV3000 laser-scanning confocal microscope (Olympus), using a 60 × objective lens (Plapon 60 × OSC2, N.A. 1.4, oil) with the 4′,6-diamidino-2-phenylindole (DAPI) ([…]), green fluorescent protein (GFP) (EX 470, EM 525 for enhanced GFP (EGFP)), and Cy5 ([…]) emission filters. FV31S software (Olympus, Tokyo, Japan) was used for image acquisition.
# A549 cells = assay: Cell viability (CellTiter-Glo ATP assay) in A549 cells; assay type: cell-based, human; conditions: 24 h; for relative ATP levels (cell viability): CellTiter-Glo ATP assay, luminescence, mean ± SD of three independent assays, n ≥ 5 wells per dose
# Procedure: as §1
# The A549 cell line (Bioresource Collection and Research Center (BCRC) 60074) was purchased from the BCRC and cultured according to BCRC recommendations. For the cell viability and transfection assay, 4–5 × 10^3 cells were seeded into the wells of a 96-well plate and cultured overnight. Cells were then treated according to the indicated doses and times. Cell viability was quantified using the CellTiter-Glo® Luminescent Cell Viability Assay kit (ATP assay) (Madison, WI, USA) as previously described. The luminescent signal was measured using a photometer (SpectraMax® i3, Molecular Devices, Wals, Austria).
# For the multi-well based assay, cells were plated at least in quadruplicate. Data were collected from independently repeated experiments (N ≥ 3) and were analyzed by Prism5 software (GraphPad Inc., La Jolla, CA, USA). Statistical significance was determined by a two-tailed Student’s t-test or one-way/two-way analysis of variance (ANOVA) with a Bonferroni post hoc test. Differences were considered statistically significant at p < 0.05. […]
# Supplementary Table S1. Cellular toxicit y of TP 4 to A549 cells was evaluated b y cell viability. Results of statis tical tests on data in Figu re 6A are shown. Multiple wells were anal yzed for each ex periment (n ≥ 5 wells per do se). Results represent the mean ± SD from three independent assays. Statistical comparisons between mock versus TP4 treatment groups were performed using two -way ANOVA anal ysis with Bonferroni post-hoc test: a, not signi ficant; b, P < 0.05; c, P < 0.01; d, P < 0.001. […]
# (A-G) Th e helical projection plot and s tructural model o f TP4 (A) and TP4 variants (MT-1 to MT-6, B-G ). The helical proj ecti on was produced b y an online helical wheel projection program (http://rzlab.ucr.edu/scripts/wheel/wheel.cgi). Amino acid residues are numbered and each amino acid is connected with lines to indicate its relative position along the helix. The hydrophobic residues are shown as diamonds ; h ydrophilic residues are circles. Residues with negative charge are shown as trian gles and positively charged residues are pentagons. Hydrophobicity is color coded. The
sequence,measurement,setting,value
"FIHHIIGGLFSAGKAIHRLIRRRRR [TP4, synthesized Nile tilapia-derived antimicrobial peptide, Tilapia piscidin 4]",effect on microtubule network (α-Tubulin ICC; F-actin not affected),"[1]; A549 cells treated with TP4, Figure 2A",clearly affected
same,effect on microtubule network (α-Tubulin ICC),"[1]; A549 cells, TP4 6.71 μM, 3 h, Figure 6B",microtubule defects were clearly observed
same,effect on microtubule network (α-Tubulin ICC),"[1]; A549 cells, TP4 6.71 μM, 3 h, Figure 6B, listed as WT",microtubule abnormalities were observed
same,"intracellular uptake (ICC, TP4 antibody or FITC)","[1]; A549 cells, TP4 6.71 μM, 3 h, mutants FITC-labeled, Figure 6B",peptide penetration
same,relative ATP levels (cell viability),A549 cells; 3.35 µM,0.580±0.061
same,relative ATP levels (cell viability),A549 cells; 5.03 µM,0.211±0.030
same,relative ATP levels (cell viability),"A549 cells; 6.71 µM, listed as WT",0.129±0.034
same,relative ATP levels (cell viability),"A549 cells; 6.71 µM, listed as wild-type TP4, 6.71 µM",0.130 ± 0.036
same,relative ATP levels (cell viability),"A549 cells; 20.12 µM, listed as WT",0.009±0.010
same,relative ATP levels (cell viability),"A549 cells; 20.12 µM, listed as wild-type TP4, 20.12 µM",0.010 ± 0.010
same,cytotoxicity to A549 cells (in words),"A549 cells; doses 3.35-20.12 µM, ATP assay, Figure 6A",obvious dose-dependent cytotoxic effects
